For 60 molecules, melting point results are on record in a melting point compilation (Tetko et al.; mined from patent text by program, amines drawn as free bases though some values may be those of a salt).

The structures appear in SMILES notation.

One may read the melting point as the temperature, or range, at which the solid turns liquid. For the molecule `CS(=O)(=O)c1cc(C(=O)N=C(N)N)ccc1C(F)(F)F`, the melting point fell in the range of 146 to 147 °C.

Consider `CON1C(C)(C)CC(OC(=O)CCc2cc(-n3nc4ccccc4n3)c(O)c(C(C)(C)C)c2)CC1(C)C`, for which the melting point is 135 to 137 °C.

With `O=C(CS(=O)(=O)C(c1ccc(Cl)cc1)c1ccc(Cl)cc1)c1ccccn1`, the melting point was 120 to 121 °C.

In the case of `CCOC(=O)N1CCC(Oc2ccccc2)(c2ccccc2)CC1`, the melting point fell in the range of 117 to 118 °C.

`CC(=O)C(C(C)=O)C(C(C)=O)C(C)=O` gave a melting point of 193 to 194 °C.

`CCOC(=O)c1c(Cl)nc(CC)n1Cc1ccc2oc(-c3ccccc3NC(=O)OC(C)(C)C)c(Br)c2c1` showed a melting point of 73 to 74 °C.

For `CN(C)c1ccc([N+](=O)[O-])c(C(O)c2ccccc2)c1` (stereo not given), the melting point fell in the range of 95 to 97 °C.

The molecule `N#Cc1ccc(NC(=O)c2ccccc2SSc2ccccc2C(=O)Nc2ccc(C#N)cc2)cc1` gave a melting point of 239 to 241 °C.

Take `O=C(NC[C@@H](C(=O)NO)N1CCCCC1)c1ccc(OCc2ccnc(Br)c2)cc1`: the melting point is 150 °C.

Turning to `COc1cc(C(C)=O)ccc1OC/C=C/CBr`, the melting point lay within 71 to 72 °C.

In turn, `O=C(N1CCC(N2CCOCC2)CC1)C12CC(c3ccccc31)c1ccccc12` returned a melting point of 179 to 180 °C.

With `CC(C)N(CCOc1ccc2c(=O)c3ccc(OCCN(C(C)C)C(C)C)cc3oc2c1)C(C)C`, the melting point is 118 °C.

For `CCc1nc2c(C)c([N+](=O)[O-])c(C)nc2[nH]1`, the melting point was 146 to 149 °C.

Take `Cc1cc(C)c(S(=O)(=O)Nc2onc(C)c2Br)c(C)c1`: the melting point lay in the range of 92 to 95 °C.

Take `O=C(O)c1cnc2ccoc2c1`: the melting point lay in the range of 238 to 239 °C.

As for `Cc1cc(SC(C)C)c(NC(=O)CCCCCCCCSc2nc3cccc(C(F)(F)F)c3o2)c(SC(C)C)n1`, the melting point fell in the range of 97 to 98 °C.

Molecule `[N-]=[N+]=Nc1cc(Cl)nc(-c2ccco2)n1` displayed a melting point of 117 to 119 °C.

Turning to `CCCS(=O)(=O)c1ccccc1S(=O)(=O)NC(=O)Nc1nc(Cl)cc(OC)n1`, the melting point was in the range of 193 to 195 °C.

For `CN(C(=O)c1cccc(C(=C2CC3CCC(C2)N3C)c2ccccc2)c1)c1cccc(F)c1`, the melting point is 122 to 125 °C.

For `CN1CCN(c2cccc3ccc(-n4cnc5ncccc54)cc23)CC1`, the melting point lay within 107 to 112 °C.

`COc1ccc2cc(C(N)=O)c(N)nc2c1OC` displayed a melting point of 218 to 219 °C.

`CC1(C)CCC(C)(C)C2=C1C=C(CC#Cc1ccc(C(=O)O)cc1)CC2(O)OCc1ccc(C(F)(F)F)cc1` (stereo not given): the melting point is 222 °C.

In the case of `Cc1cc(CN2N=C(C(F)(F)C(F)(F)F)NC2(O)C(C)(C)C)ccc1[N+](=O)[O-]` (stereo not given), the melting point lay in the range of 125 to 128 °C.

Molecule `O=C(Oc1cc(F)ccc1F)c1cc2cc(CCl)ccc2oc1=O` registered a melting point of 137 to 140 °C.

`COC(C)(C)C(=O)C(Oc1ccc(I)cc1)n1cncn1` (stereo not given) showed a melting point of 81.5 to 82.5 °C.

`CCCCc1ncc(CC(Cc2ccccc2)C(=O)O)n1Cc1ccccc1Cl` (stereo not given) registered a melting point of 118 to 120 °C.

Take `C[C@@H](NC(=O)c1c[nH]c2ncc(-c3nn(C)c4cc(F)ccc34)nc12)C1(C#N)CCCC1`: the melting point lay in the range of 300 to 315 °C.

In turn, `CN(C)CCCNC(=O)c1c2ccc(Cl)cc2c(-c2ccccc2)n1C` registered a melting point of 146 to 148 °C.

`[N-]=[N+]=NCC1Cc2c[nH]c3cccc(c23)C(=O)N1` (stereo not given) yielded a melting point of 152 to 153 °C.

Molecule `Cc1cc(C)c(C=O)c(O)c1` registered a melting point of 46 to 48 °C.

`COC(=O)c1ccccc1S(=O)(=O)NC(=O)c1cnc2c(C)cc(C)nn12` came in with a melting point of 210 to 212 °C.

`O=c1cc(OCc2ccccc2)cc(CC(O)c2ccc(OCc3ccccc3)c(OCc3ccccc3)c2)o1` (stereo not given) showed a melting point of 109 to 110 °C.

On to `COc1cccc([C@H]2O[C@H](CC(=O)NCc3ccc(CC(=O)O)cc3)C(=O)N(CC(C)(C)CO)c3ccc(Cl)cc32)c1OC`, for which the melting point lay within 129 to 132 °C.

`NS(=O)(=O)c1cc2c3c(ccc2cc1[N+](=O)[O-])N(C(=O)C(F)(F)F)CC3CCl` (stereo not given) gave a melting point of 192 to 195 °C.

For `Cc1oc(-c2ccc3ccccc3c2)nc1COc1ccc(CCCC#N)cc1`, the melting point lay in the range of 149 to 151 °C.

With `COc1ccc(CN2C(=O)C3(COc4cc5c(cc43)CCO5)c3c2ccc2ncccc32)cc1` (stereo not given), the melting point lay in the range of 169 to 170 °C.

For the molecule `COc1ccc(C(c2ccc(OC)cc2)C2CN(C)CCC2=O)cc1` (stereo not given), the melting point lay within 104 to 106 °C.

As for `Cc1ccc(NC(=O)c2ccc3c(c2)C(=O)N(c2c(Cl)cccc2Cl)C3=O)cc1C`, the melting point was in the range of 238 to 240 °C.

For the molecule `O=C(N[C@@H](Cc1ccccc1)[C@@H](O)[C@H](O)[C@H](Cc1ccccc1)NC(=O)c1ccccn1)c1ccccn1`, the melting point was 179 to 184 °C.

Molecule `CCOc1ccc(-c2ccc(Cl)cc2)cc1C=O` gave a melting point of 88 to 90 °C.

`CC(C)OC(=O)C=CC(=O)c1ccc(Oc2ccccc2)cc1`: the melting point is 71.5 to 72 °C.

As to `Cc1nc(Cn2nc(-c3c(-c4ccccc4)nn4ccccc34)ccc2=O)cs1`, the melting point lay in the range of 196 to 198 °C.

`Cc1ccc(S(=O)(=O)NN=CC(Cl)Cl)cc1` came in with a melting point of 123 °C.

As to `CC(C)(C)C(F)(F)c1ccc(C[C@H](N)[C@H](O)c2cccc(Cl)c2)cc1` (racemic), the melting point is 105 to 107 °C.

In turn, `COc1cc(CCCC2SC(=O)NC2=O)ccc1OCc1nc(-c2ccco2)oc1C` (stereo not given) returned a melting point of 109 to 110 °C.

Turning to `O=C(c1cccs1)c1cnn2c(Cl)ccnc12`, the melting point lay within 148 to 150 °C.

In turn, `O=c1ccc(-c2cccc(F)c2)n[nH]1` yielded a melting point of 207 to 209 °C.

`CC(COc1ccc(CC2SC(=O)NC2=O)cc1)C1CC(COc2ccccc2)OC1=S` (stereo not given) showed a melting point of 53 to 58 °C.

For the molecule `Clc1ccccc1-c1cnn2cnnc2n1`, the melting point fell in the range of 162 to 165 °C.

`O=c1c2c(Cc3ccccc3OC(F)(F)F)n[nH]c2c2cccnc2n1-c1cccc(OC(F)(F)F)c1` registered a melting point of 233 to 236 °C.

Take `C=CCON=C(CC)C1=C(O)CC(c2c(C)c(C)c3c(c2C)CC(C)(CC)C3)CC1=O` (stereo not given): the melting point was 64 to 65 °C.

Molecule `O=C(O)c1ccc(OCC2CN(C(=O)c3ccccc3)C(=O)O2)cc1` (stereo not given) came in with a melting point of 219 to 221 °C.

`O=C(NCCC(F)=C(F)F)N(c1ccccc1)c1ccccc1` yielded a melting point of 116 to 117 °C.

Molecule `COc1ccc2c(c1)CC[C@@H]1[C@@H]2CC[C@@]2(C)[C@H]1CCC2(OC)OC` came in with a melting point of 104 to 116 °C.

In turn, `COc1ccc(-c2[nH]nc3c2C(=O)c2c(NC(=O)Cc4ccc(OC)c(OC)c4)cccc2-3)cc1` registered a melting point greater than 300 °C.

Take `CCCc1c(OCc2cccc(C(=O)OCC)c2OCC)ccc(C(C)=O)c1O`: the melting point lay within 59 to 62 °C.

With `CN1CCN(C2=Nc3cscc3C(=CC#N)c3cscc32)CC1`, the melting point was in the range of 148 to 151 °C.

Turning to `BrCC[Si](CCBr)(CCBr)CCBr`, the melting point was in the range of 90 to 91 °C.

The molecule `O=c1cc2c(nn1-c1ccc(Cl)cc1)-c1cccc(Cl)c1SCC2` yielded a melting point of 166 to 168 °C.

For `Cc1cc(-c2ccc(C(F)(F)F)nc2)cc(-c2cccc(-c3ccc(S(N)(=O)=O)s3)c2)n1`, the melting point fell in the range of 231 to 233 °C.
